Tested on: DMS-114 complex spheroids with HUVEC/MSC, growth % test/control
Experiment: Anticancer human tumor DMS-114 cell line growth inhibition [AhR];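 also: spheroids exposed to agents for 7 days before readout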;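 as to viability, T/C: 100% = DMSO vehicle control wells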
Settings: for IC50: curve of first compound; for viability, T/C: stronger effect = lower value; active = viability on the fitted dose curve at most 10% of control; inactive = the rest
Source text: Multicellular complex tumor spheroid response to aryl hydrocarbon receptor antagonists in combination with a variety of drugs and investigational agents in selected tumor cell lines
The current study was undertaken to assess response to aryl hydrocarbon receptor antagonists in combination with standard-of-care drugs and investigational agents in solid tumor complex spheroid models. Complex spheroids include a stromal component modeled by human endothelial cells (HUVEC) and fibroblasts modeled by human mesenchymal stem cells (MSCs). The concentration ranges selected for each drug and investigational agent were based upon clinically achievable concentrations if the clinical Cmax of the agent was known.
Compounds. The drugs and investigational agents: BAY 2416964 (NSC825713), GNF351 (NSC835774), CH-223191 (NSC835775), CPI-455 (NSC825282), aza-TdCyd (NSC777586), decitabine (NSC127716), belinostat (NSC758774), entinostat (NSC756642), pevonedistat (NSC761192), tazemetostat (NSC777109), talazoparib (NSC765396), olaparib (NSC753686), selinexor (NSC780203), nedisertib (M3814, NSC802822), bortezomib (NSC756655), venetoclax (NSC766270), doxorubicin (NSC123127), elimusertib (BAY189344, NSC800525), ceralasertib (AZD6738, NSC777638), TAK-243 (NSC785004), alisertib (NSC759677), etoposide (NSC141540), topotecan (NSC609699), eribulin (NSC707389), gemcitabine (NSC613327), carboplatin (NSC241240), cisplatin (NSC119875), and SN-38 (NSC673596) were obtained from the National Cancer Institute (NCI) Developmental Therapeutics Program Chemical Repository (32). The FDA-approved anticancer drug set is available from the Developmental Therapeutics Program at https://dtp.cancer.gov/organization/dscb/obtaining/available plates.htm. […] The stock solutions were prepared in dimethyl sulfoxide (DMSO, Sigma-Aldrich, St. Louis, MO, cat. D2650), except for the platinum compounds which were prepared in saline (Quality Biological, Gaithersburg, MD, cat. 114-055-101), at 800-fold the tested concentration and stored at -70 degrees C prior to their use. All drugs and investigational agents were tested over a range starting from a high concentration at or near the clinical Cmax and decreasing in half-log increments. If the clinical Cmax for an agent had not been determined, the highest concentration tested was 10 microM (Table 1).
Cell Culture. All cells were maintained in an incubator at 37 degrees C and 5% CO2 with 95% humidity. The PDC lines were cultured according to standard operating procedures established by the NCI PDMR (https://pdmr.cancer.gov). Briefly, all PDCs were thawed and cultured in Matrigel-coated flasks prepared with a working solution of 1X Ham's F-12 nutrient mix, without supplementation (Invitrogen, Waltham, MA, cat. 11765054), 100 U/mL penicillin-streptomycin (Invitrogen, cat. 15140122), and 2.5% Matrigel (Corning Inc., Corning, NY, cat. 354248) for the first three passages. All PDCs were cultured in complete DMEM/F-12 media containing advanced DMEM/F-12 (Invitrogen, cat. 12634028), 4.9% defined fetal bovine serum, heat inactivated (HyClone Laboratories Inc., Logan, UT, cat. SH30070.03HI), 389 ng/mL hydrocortisone (Sigma-Aldrich, cat. H4001), 9.7 ng/mL human EGF recombinant protein (Invitrogen, cat. PHG0313), 23.4 microg/mL adenine (Sigma-Aldrich, cat. A2786), 97.3 U/mL penicillin-streptomycin (Invitrogen, cat. 15140122), 1.9 mM L-glutamine (Invitrogen, cat. 25030081), and 9.7 microM Y-27632 dihydrochloride (Tocris Bioscience, Bristol, United Kingdom, cat. 1254). The PDCs were cultured in complete DMEM/F12 media without 10 microM Y-27632 dihydrochloride for at least two passages prior to the screen. The established cell lines NCI-H1341 and […] were cultured in DMEM/F-12, HEPES (Invitrogen, cat. 11330032), 5% defined fetal bovine serum (HyClone Laboratories Inc., cat. SH30070.03), ITS premix universal culture supplement [insulin (5 microg/mL), transferrin (5 microg/mL), and selenious acid (5 ng/mL)] […]

CC[C@@]1(O)C(=O)OCc2c1cc1n(c2=O)Cc2cc3c(CN(C)C)c(O)ccc3nc2-1 + Cc1cncc(-c2nc(NCCc3c[nH]c4ccccc34)c3ncn(C(C)C)c3n2)c1
active: viability, T/C (second compound 10 µM, first compound 0.1 µM) 9.82%
21.9 nM: IC50 (second compound 3.16 µM)
inactive: viability, T/C (second compound 0.1 µM, first compound 0.000316 µM) 93.4% | viability, T/C (second compound 0.1 µM, first compound 0.001 µM) 99.2% | viability, T/C (second compound 0.1 µM, first compound 0.00316 µM) 85.8% | viability, T/C (second compound 0.1 µM, first compound 0.01 µM) 75.6% | viability, T/C (second compound 0.1 µM, first compound 0.0316 µM) 41.1% | viability, T/C (second compound 0.1 µM, first compound 0.1 µM) 16.7% | viability, T/C (second compound 0.316 µM, first compound 0.000316 µM) 93.4% | viability, T/C (second compound 0.316 µM, first compound 0.001 µM) 101% | viability, T/C (second compound 0.316 µM, first compound 0.00316 µM) 83.8% | viability, T/C (second compound 0.316 µM, first compound 0.01 µM) 83.2% | viability, T/C (second compound 0.316 µM, first compound 0.0316 µM) 37.8% | viability, T/C (second compound 0.316 µM, first compound 0.1 µM) 17% | viability, T/C (second compound 1 µM, first compound 0.000316 µM) 97.3% | viability, T/C (second compound 1 µM, first compound 0.001 µM) 112% | viability, T/C (second compound 1 µM, first compound 0.00316 µM) 94.5% | viability, T/C (second compound 1 µM, first compound 0.01 µM) 86% | viability, T/C (second compound 1 µM, first compound 0.0316 µM) 42.1% | viability, T/C (second compound 1 µM, first compound 0.1 µM) 19.5% | viability, T/C (second compound 3.16 µM, first compound 0.000316 µM) 99.7% | viability, T/C (second compound 3.16 µM, first compound 0.001 µM) 94% | viability, T/C (second compound 3.16 µM, first compound 0.00316 µM) 96.1% | viability, T/C (second compound 3.16 µM, first compound 0.01 µM) 71.9% | viability, T/C (second compound 3.16 µM, first compound 0.0316 µM) 39.8% | viability, T/C (second compound 3.16 µM, first compound 0.1 µM) 17.8% | viability, T/C (second compound 10 µM, first compound 0.000316 µM) 40.1% | viability, T/C (second compound 10 µM, first compound 0.001 µM) 43.7% | viability, T/C (second compound 10 µM, first compound 0.00316 µM) 37.1% | viability, T/C (second compound 10 µM, first compound 0.01 µM) 27.2% | viability, T/C (second compound 10 µM, first compound 0.0316 µM) 16.7%
25.9 nM: IC50 (second compound 1 µM)
23.2 nM: IC50 (second compound 0.316 µM)
23.6 nM: IC50 (second compound 0.1 µM)
< 0.316 nM: IC50 (second compound 10 µM)

CCc1c2c(nc3ccc(O)cc13)-c1cc3c(c(=O)n1C2)COC(=O)[C@]3(O)CC + Cc1cncc(-c2nc(NCCc3c[nH]c4ccccc34)c3ncn(C(C)C)c3n2)c1
2.02 nM: IC50 (second compound 1 µM)
2.07 nM: IC50 (second compound 0.1 µM)
active: viability, T/C (second compound 10 µM, first compound 0.03 µM) 8.3% | viability, T/C (second compound 10 µM, first compound 0.0949 µM) 9% | viability, T/C (second compound 10 µM, first compound 0.3 µM) 6.26%
< 0.949 nM: IC50 (second compound 10 µM)
2.21 nM: IC50 (second compound 0.316 µM)
inactive: viability, T/C (second compound 0.1 µM, first compound 0.000949 µM) 67.4% | viability, T/C (second compound 0.1 µM, first compound 0.003 µM) 41.6% | viability, T/C (second compound 0.1 µM, first compound 0.00949 µM) 21.9% | viability, T/C (second compound 0.1 µM, first compound 0.03 µM) 13.8% | viability, T/C (second compound 0.1 µM, first compound 0.0949 µM) 12.6% | viability, T/C (second compound 0.1 µM, first compound 0.3 µM) 12.5% | viability, T/C (second compound 0.316 µM, first compound 0.000949 µM) 69% | viability, T/C (second compound 0.316 µM, first compound 0.003 µM) 43.1% | viability, T/C (second compound 0.316 µM, first compound 0.00949 µM) 19.9% | viability, T/C (second compound 0.316 µM, first compound 0.03 µM) 14.5% | viability, T/C (second compound 0.316 µM, first compound 0.0949 µM) 15.2% | viability, T/C (second compound 0.316 µM, first compound 0.3 µM) 12.2% | viability, T/C (second compound 1 µM, first compound 0.000949 µM) 62.5% | viability, T/C (second compound 1 µM, first compound 0.003 µM) 43.5% | viability, T/C (second compound 1 µM, first compound 0.00949 µM) 20.7% | viability, T/C (second compound 1 µM, first compound 0.03 µM) 15.5% | viability, T/C (second compound 1 µM, first compound 0.0949 µM) 9.97% | viability, T/C (second compound 1 µM, first compound 0.3 µM) 14.7% | viability, T/C (second compound 3.16 µM, first compound 0.000949 µM) 62.9% | viability, T/C (second compound 3.16 µM, first compound 0.003 µM) 33.7% | viability, T/C (second compound 3.16 µM, first compound 0.00949 µM) 15% | viability, T/C (second compound 3.16 µM, first compound 0.03 µM) 13.1% | viability, T/C (second compound 3.16 µM, first compound 0.0949 µM) 13% | viability, T/C (second compound 3.16 µM, first compound 0.3 µM) 12.4% | viability, T/C (second compound 10 µM, first compound 0.000949 µM) 22.1% | viability, T/C (second compound 10 µM, first compound 0.003 µM) 17.4% | viability, T/C (second compound 10 µM, first compound 0.00949 µM) 9.92%
1.58 nM: IC50 (second compound 3.16 µM)

— PubChem BioAssay AID1919008 (Molecular Pharmacology Branch, DTP, NCI, 2023)
